Reference: publication PMC8391127, “Triterpenoid–PEG Ribbons Targeting Selectivity in Pharmacological Effects” (Biomedicines, 2021)
Read-outs that look alike come from different tables or passages of the source. Marks after values point to notes of the source that are not given here.

Columns and labels:
Bacillus cereus = assay: Antimicrobial screening, resazurine test; assay type: cell-based; details: Bacillus cereus, B. cereus, read-out: Inhibition of the microorganism; for inhibition at 25 µg/mL: c = 25 µg·mL-1; for inhibition at 50 µg/mL: c = 50 µg·mL-1; for inhibition at 100 µg/mL: c = 100 µg·mL-1
Procedure: (§1) The resazurine test was used to evaluate this activity.
(§2) The cell inoculum was made in Mueller–Hinton broth (10 mL). Colonies of cells were inoculated from the solid medium that was cultivated for 24 h under optimum conditions. A part of the inoculum was diluted to get suspension with an optical density 0.6 to 0.9 McF. An aliquot amount (1 mL) was taken and diluted with additional volume of the medium (19 mL). The stored solutions of the tested compounds were made at a concentration c = 200 µg.mL^−1. The stored suspensions of the cells, MHB medium, solutions of the antibiotics specific for the given bacteria (vancomycin for S. aureus and E. faecalis, kanamycin for E. coli and P. aeruginosa, and tetracycline for B. cereus), and the solutions of the compounds were pipetted into the microtitration plates. Subsequently, a concentration sequence of the tested compounds was made (c = 100, 50, and 25 µg.mL^−1). The content of the microtitration plates was cultivated for 24 h under optimum conditions for the given bacteria. A solution of resazurine was made, based on a dilution of its stored solution (c = 0.15 mg.mL^−1; 2 mL) into the MHB medium (18 mL). Then, it was pipetted into the microtitration plates that were cultivated for an additional 1 h. Finally, fluorescence measurement (excitation at 560 nm, emission at 590 nm) was made, and the inhibition of the bacterium was determined.
(§3) 2. Antimicrobial screening tests
(§4) Antimicrobial activity of the target molecular ribbons 8a, 12a, 8b, 12b, 4c, 6c, 6d and 8d, and […]
(§5) aeruginosa, Staphylococcus aureus and Enterococcus faecalis. The resazurine test was used to […]
(§6) ribbons which have been achieved in this investigation.
(§7) Table S1. Antimicrobial activity, inhibition of the microorganism [%]
(§8) Comp. Staphylococcus aureus Comp. Escherichia coli […]
(§9) µg·mL-1 µg·mL-1 µg·mL-1 µg·mL-1 µg·mL-1 µg·mL-1
(§10) Comp. Bacillus cereus Comp. Pseudomonas aeruginosa

Enterococcus faecalis = assay: Antimicrobial screening, resazurine test; assay type: cell-based; details: E. faecalis; for inhibition at 25 µg/mL / inhibition at 50 µg/mL / inhibition at 100 µg/mL: Enterococcus faecalis, read-out: Inhibition of the microorganism; for inhibition at 50 µg/mL: c = 50 µg·mL-1; for inhibition at 100 µg/mL: c = 100 µg·mL-1
Procedure: as §1, §2, §3, §4, §5, §6, §7, §8, §9, §10

Escherichia coli = assay: Antimicrobial screening, resazurine test; assay type: cell-based; details: E. coli; for inhibition at 25 µg/mL / inhibition at 50 µg/mL / inhibition at 100 µg/mL: Escherichia coli, read-out: Inhibition of the microorganism; for inhibition at 50 µg/mL: c = 50 µg·mL-1; for inhibition at 100 µg/mL: c = 100 µg·mL-1
Procedure: as §1, §2, §3, §4, §5, §6, §7, §8, §9, §10

Pseudomonas aeruginosa = assay: Antimicrobial screening, resazurine test; assay type: cell-based; details: P. aeruginosa; for inhibition at 25 µg/mL: c = 25 µg·mL-1, read-out: Inhibition of the microorganism; for inhibition at 50 µg/mL: c = 50 µg·mL-1, read-out: Inhibition of the microorganism; for inhibition at 100 µg/mL: c = 100 µg·mL-1, read-out: Inhibition of the microorganism
Procedure: as §1, §2, §3, §4, §5, §6, §7, §8, §9, §10

Staphylococcus aureus = assay: Antimicrobial screening, resazurine test; assay type: cell-based; details: S. aureus; for inhibition at 25 µg/mL / inhibition at 50 µg/mL / inhibition at 100 µg/mL: Staphylococcus aureus, read-out: Inhibition of the microorganism; for inhibition at 50 µg/mL: c = 50 µg·mL-1; for inhibition at 100 µg/mL: c = 100 µg·mL-1
Procedure: as §1, §2, §3, §4, §5, §6, §7, §8, §9, §10

[1] = Ability to form supramolecular gel; assay type: physicochemical; details: 1% w/v in solvent, ultrasound 30 min, heated to boiling, cooled to r.t. 24 h
Procedure: The solutions of the studied compounds 8a, 12a, 8b, 12b, 4c, 6c, 6d, and 8d (1%, w/v) in the appropriate solvent were mixed with ultrasound for 30 min, then heated to the boiling points of the used solvents, and then allowed to cool down to the r.t. for 24 h. An example of the resulting gels that were produced from 8a, 4c, 6c, and 6d is shown in the Supplementary Material, Figure S1.

[2] = Cytotoxicity screening test; assay type: cell-based; details: human
Excerpt: (§11) Description of the experimental procedure used in the cytotoxicity screening test was already published. The following cancer cell lines were used in the investigation: T-lymphoblastic leukemia, CEM; breast carcinoma, MCF7; cervical carcinoma, HeLa; and malignant melanoma, G-361. Human foreskin fibroblasts, BJ, were used as reference cells. All of the above cell lines were obtained from the American Type Culture Collection (Manassas, VA, USA). African green monkey kidney Vero cells were obtained from the European Collection of Cell Cultures (Salisbury, UK) and human T-cell leukemia MT-4 cells were obtained through the NIH AIDS Reagent Program, Division of AIDS, NIAID, NIH, from Dr. Douglas Richman. All cells, but MT-4 cells, were cultured in DMEM (Dulbecco’s Modified Eagle Medium, Sigma, St. Louis, MO, USA). MT-4 cells were maintained in RPMI1640 medium. Media used were supplemented with 10% fetal bovine serum, 2 mM L-glutamine, and 1% penicillin–streptomycin (all Sigma, St. Louis, MO, USA). The cell lines were maintained under standard cell culture conditions at 37 °C and 5% CO2 in a humid environment. Cells were subcultured twice or three times a week using the standard trypsinization procedure.

[3] = Cytotoxicity screening test, reference cells; assay type: cell-based; details: BJ foreskin fibroblasts; BJ human fibroblasts
Excerpt: as §11

[4] = Self-assembly by UV-VIS spectrometry in methanol/water mixtures; assay type: physicochemical; details: 0-140 h
Procedure: The self-assembly of the selected compounds 8a, 12a, 8b, 12b, 4c, 6c, 6d, and 8d was measured using UV absorption in methanol/water mixtures with a constant concentration of the studied compound for 7 days in one-hour intervals on the first day, and in 24 h intervals all following days. The stock solutions of the studied compounds were prepared at a concentration of 1 mg·mL^−1 in water. Then, a series of methanol/water mixtures were prepared starting from a methanol/water ratio 100/0 down to 0/100 in 20% steps. The stock solutions of the studied compounds (0.15 mL) were added separately to each vial containing methanol/water mixtures (3 mL), and the UV spectra were recorded in the wavelength range of 200–400 nm. […] For the compounds 8a, 12a, 12b and 6d, the details are presented in the Supplementary Material; see Figure S2.
Supramolecular self-assembly was studied on the basis of the UV-VIS spectra of the compounds in several methanol/water mixtures stepwise during the time interval 0-140 h. Here we show compounds 8a, 12a, 12b and 6d as examples, with which the irregularities in the UV-VIS spectra were either well pronounced (8a and 12a; Figure S2), or no substantial irregularity was detected (12b and 6d).
Figure S2. UV-VIS spectra of 8a (top) and 12a (bottom) measured in the interval 0-140 h.
During that time interval a new maximum appeared at 300 nm wavelength, and the shape of the curves is different than in any of the other intervals of measurement. […]

[5] = test system: HIV-1 (laboratory strain NL4-3); assay: microbe, parasite or virus in culture; assay type: cell-based
Procedure: The cell lines were maintained under standard cell culture conditions at 37 °C and 5% CO2 in a humid environment. Cells were subcultured twice or three times a week using the standard trypsinization procedure.

Row | Compound | Gel formation [1] | Irregularity in UV-VIS spectra (self-assembly) [4] | inhibition at 25 µg/mL (Bacillus cereus) | inhibition at 50 µg/mL (Bacillus cereus) | inhibition at 100 µg/mL (Bacillus cereus) | inhibition at 25 µg/mL (Enterococcus faecalis; c = 25 µg·mL-1) | inhibition at 50 µg/mL (Enterococcus faecalis) | inhibition at 100 µg/mL (Enterococcus faecalis) | inhibition at 25 µg/mL (Escherichia coli; c = 25 µg·mL-1) | inhibition at 50 µg/mL (Escherichia coli) | inhibition at 100 µg/mL (Escherichia coli) | inhibition at 25 µg/mL (Pseudomonas aeruginosa) | inhibition at 50 µg/mL (Pseudomonas aeruginosa) | inhibition at 100 µg/mL (Pseudomonas aeruginosa) | inhibition at 25 µg/mL (Staphylococcus aureus; c = 25 µg·mL-1) | inhibition at 50 µg/mL (Staphylococcus aureus) | inhibition at 100 µg/mL (Staphylococcus aureus) | also measured
1 | CC1(C)C=C2[C@H]3CC[C@@H]4[C@@]5(C)CCC(=O)C(C)(C)[C@@H]5CC[C@@]4(C)[C@]3(C)CC[C@@]2(C(=O)NCCOCCOCCOCCn2cc(COC(=O)[C@]34CCC(C)(C)C=C3[C@H]3CC[C@@H]5[C@@]6(C)CCC(=O)C(C)(C)[C@@H]6CC[C@@]5(C)[C@]3(C)CC4)nn2)CC1 [4c] | produced a gel in glycerol | – | 2 ± 0.3% | 0 to 1% | 6 ± 9% | > 62% | 50 ± 7.5% | 43 ± 6.5% | 25 ± 3.8% | 34 ± 5.1% | 31 ± 4.7% | 50 ± 7.5% | 47 ± 7% | 46 ± 6.8% | 11 ± 1.7% | 66 ± 9.9% | 76 ± 11.4% | Inhibition of the microorganism (Enterococcus faecalis; c = 25 µg·mL-1): 62 ± 9.3 ^e %
2 | CC(C)OC(=O)[C@H](C)N[P@](=O)(CO[C@H](C)Cn1cnc2c(N)ncnc21)Oc1ccccc1 [tenofovir alafenamide, Tenofovir alafenamide, reference compound] | – | – | – | – | – | – | – | – | – | – | – | – | – | – | – | – | – | EC50 ([5]; Human immunodeficiency virus 1, NL43, MT4, read-out: EC50 ± SE against HIV-1): 0.0097 ± 0.0023 µM

The next lines start with results.

Row | Gel formation [1] | Irregularity in UV-VIS spectra (self-assembly) [4] | Compound | inhibition at 25 µg/mL (Bacillus cereus) | inhibition at 50 µg/mL (Bacillus cereus) | inhibition at 100 µg/mL (Bacillus cereus) | inhibition at 25 µg/mL (Enterococcus faecalis; c = 25 µg·mL-1) | inhibition at 50 µg/mL (Enterococcus faecalis) | inhibition at 100 µg/mL (Enterococcus faecalis) | inhibition at 25 µg/mL (Escherichia coli; c = 25 µg·mL-1) | inhibition at 50 µg/mL (Escherichia coli) | inhibition at 100 µg/mL (Escherichia coli) | inhibition at 25 µg/mL (Pseudomonas aeruginosa) | inhibition at 50 µg/mL (Pseudomonas aeruginosa) | inhibition at 100 µg/mL (Pseudomonas aeruginosa) | inhibition at 25 µg/mL (Staphylococcus aureus; c = 25 µg·mL-1) | inhibition at 50 µg/mL (Staphylococcus aureus) | inhibition at 100 µg/mL (Staphylococcus aureus) | also measured
3 | produced a gel in glycerol | – | CC1(C)C=C2[C@H]3CC[C@@H]4[C@@]5(C)CCC(=O)C(C)(C)[C@@H]5CC[C@@]4(C)[C@]3(C)CC[C@@]2(C(=O)NCCOCCOCCOCCn2cc(CO[C@H]3CC[C@]4(C)[C@H]5CC=C6C7CC(C)(C)CC[C@]7(C(=O)O)CC[C@@]6(C)[C@]5(C)CC[C@H]4C3(C)C)nn2)CC1 (stereo partly shown) [6c] | 7 ± 1% | 19 ± 2.9% | 13 ± 2% | 0 to 1% | 25 ± 3.8% | 36 ± 5.4% | 10 ± 1.5% | 18 ± 2.7% | 30 ± 4.5% | 12 ± 1.8% | 69 ± 10.4% | 60 ± 9% | 13 ± 2% | 51 ± 7.7% | 27 ± 4% | –
4 | produced a gel in glycerol | No substantial irregularity was detected | CC1(C)C=C2C3CC[C@@H]4[C@@]5(C)CC[C@H](OCc6cn(CCOCCOCCOCCNC(=O)[C@]78CCC(C)(C)C=C7[C@H]7CC[C@@H]9[C@@]%10(C)CCC(=O)C(C)(C)[C@@H]%10CC[C@@]9(C)[C@]7(C)CC8)nn6)C(C)(C)[C@@H]5CC[C@@]4(C)[C@]3(C)CC[C@@]2(C(=O)O)CC1 (stereo partly shown) [6d] | 1 ± 0.2% | 0 to 1% | 3 ± 0.5% | 2 ± 0.3% | 14 ± 2.1% | 28 ± 4.2% | 9 ± 1.4% | 13 ± 2% | 0 to 1% | 0 to 1% | 0 to 1% | 0 to 1% | 25 ± 3.8% | 31 ± 4.7% | 0 to 1% | IC50 ([2]; CEM T-lymphoblastic leukemia cells): > 50 µM; IC50 ([2]; G-361 malignant melanoma cells): 20 ± 0.6 µM; IC50 ([2]; HeLa cervical carcinoma cells): > 50 µM; IC50 ([2]; MCF7 breast carcinoma cells): > 50 µM; IC50 [3]: > 50 µM
5 | produced a gel in ethylene glycol | Irregularity was detected | CC1(C)CC[C@]2(C(=O)O)CC[C@]3(C)C(=CC[C@@H]4[C@@]5(C)CC[C@H](OCc6cn(CCOCCOCCOCCNC(=O)[C@]78CCC(C)(C)CC7C7=CC[C@@H]9[C@@]%10(C)CC[C@H](O)C(C)(C)[C@@H]%10CC[C@@]9(C)[C@]7(C)CC8)nn6)C(C)(C)[C@@H]5CC[C@]43C)C2C1 (stereo partly shown) [8a] | 0 to 1% | 0 to 1% | 0 to 1% | 17 ± 2.6% | 28 ± 4.2% | 32 ± 4.8% | > 50% | 24 ± 3.6% | 0 to 1% | 21 ± 3.2% | 17 ± 2.6% | 14 ± 2.1% | > 50% | 55 ± 8.3% | 68 ± 10.2% | Inhibition of the microorganism (Escherichia coli; c = 25 µg·mL-1): 51 ± 7.7 ^e %; Inhibition of the microorganism (Staphylococcus aureus; c = 25 µg·mL-1): 52 ± 7.8 ^e %; EC50 ([5]; Human immunodeficiency virus 1, NL43, MT4, HIV-1 NL4-3 in MT-4 cells, read-out: EC50 ± SE against HIV-1): 50.6 ± 7.8 µM
